Consider one molecule from ChEMBL document CHEMBL1132111, “Design and synthesis of novel alpha(1)(a) adrenoceptor-selective antagonists. 4. Structure-activity relationship in the dihydropyrimidine series” (J Med Chem, 1999).

For orientation: Ki means a measure of affinity in units of concentration, obtained from inhibition or displacement. As a reminder, the Kb is the affinity of an antagonist, worked out from how it opposes an agonist. High values mean lower antagonist affinity, low ones higher antagonist affinity.

Test [1] deals with T1, Alpha-1D adrenergic receptor (Homo sapiens, UniProt P25100).
T1 sequence (P25100 whole entry): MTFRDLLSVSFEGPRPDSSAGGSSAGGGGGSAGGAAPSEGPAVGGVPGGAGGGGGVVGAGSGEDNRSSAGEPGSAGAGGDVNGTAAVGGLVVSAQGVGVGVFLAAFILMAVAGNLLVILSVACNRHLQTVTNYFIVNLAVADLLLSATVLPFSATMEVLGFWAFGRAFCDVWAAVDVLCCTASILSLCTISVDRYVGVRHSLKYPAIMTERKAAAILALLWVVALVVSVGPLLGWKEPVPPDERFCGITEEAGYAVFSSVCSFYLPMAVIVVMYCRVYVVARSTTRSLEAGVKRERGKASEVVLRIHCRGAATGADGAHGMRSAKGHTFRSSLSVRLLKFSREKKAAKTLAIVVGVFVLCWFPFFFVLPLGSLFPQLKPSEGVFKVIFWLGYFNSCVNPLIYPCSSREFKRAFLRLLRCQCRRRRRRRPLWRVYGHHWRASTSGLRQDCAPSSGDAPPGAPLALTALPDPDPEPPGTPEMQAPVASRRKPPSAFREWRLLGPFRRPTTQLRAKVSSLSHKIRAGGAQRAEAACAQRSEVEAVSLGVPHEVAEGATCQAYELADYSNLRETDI
Kind of test: Binding affinity against isolated human aorta using [3H]- prazosin. It counts as tissue-based.

Test [2] deals with T2, Alpha-1A adrenergic receptor (Homo sapiens, UniProt P35348).
T2 sequence (P35348 whole entry): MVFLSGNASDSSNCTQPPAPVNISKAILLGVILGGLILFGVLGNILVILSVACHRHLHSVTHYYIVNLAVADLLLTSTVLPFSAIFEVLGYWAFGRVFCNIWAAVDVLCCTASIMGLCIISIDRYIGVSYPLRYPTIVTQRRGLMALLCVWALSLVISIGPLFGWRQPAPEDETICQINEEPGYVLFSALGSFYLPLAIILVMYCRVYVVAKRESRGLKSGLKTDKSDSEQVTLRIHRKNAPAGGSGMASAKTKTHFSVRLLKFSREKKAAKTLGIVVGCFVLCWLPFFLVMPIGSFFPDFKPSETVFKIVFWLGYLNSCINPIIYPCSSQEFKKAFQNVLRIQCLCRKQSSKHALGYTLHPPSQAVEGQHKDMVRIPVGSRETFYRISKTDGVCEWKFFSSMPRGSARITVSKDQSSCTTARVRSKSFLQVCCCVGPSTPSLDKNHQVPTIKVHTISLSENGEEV
Kind of test: Binding affinity against Alpha-1A adrenergic receptor (recombinant human receptor) using [3H]prazosin.

In test [3] the target is T3, Alpha-1A adrenergic receptor (Rattus norvegicus, UniProt P43140).
T3 sequence (P43140 whole entry): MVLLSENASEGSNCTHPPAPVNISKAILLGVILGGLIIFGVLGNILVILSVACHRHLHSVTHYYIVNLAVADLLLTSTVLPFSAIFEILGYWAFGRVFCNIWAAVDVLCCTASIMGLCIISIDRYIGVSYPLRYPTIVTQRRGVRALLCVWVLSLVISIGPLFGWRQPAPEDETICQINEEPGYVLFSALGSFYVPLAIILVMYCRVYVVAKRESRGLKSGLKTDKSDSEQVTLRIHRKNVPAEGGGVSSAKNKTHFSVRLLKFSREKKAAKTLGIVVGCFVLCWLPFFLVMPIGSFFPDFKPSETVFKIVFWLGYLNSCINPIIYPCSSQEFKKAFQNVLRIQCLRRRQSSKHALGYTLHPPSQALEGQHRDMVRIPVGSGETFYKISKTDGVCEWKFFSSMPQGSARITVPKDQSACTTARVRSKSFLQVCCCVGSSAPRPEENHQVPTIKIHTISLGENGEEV
Kind of test: Binding affinity against isolated rat prostate using [3H]- prazosin. Type of test: tissue-based, Prostate gland.

The target of test [4] is T4, Alpha-1B adrenergic receptor (Homo sapiens, UniProt P35368).
T4 sequence (P35368 whole entry): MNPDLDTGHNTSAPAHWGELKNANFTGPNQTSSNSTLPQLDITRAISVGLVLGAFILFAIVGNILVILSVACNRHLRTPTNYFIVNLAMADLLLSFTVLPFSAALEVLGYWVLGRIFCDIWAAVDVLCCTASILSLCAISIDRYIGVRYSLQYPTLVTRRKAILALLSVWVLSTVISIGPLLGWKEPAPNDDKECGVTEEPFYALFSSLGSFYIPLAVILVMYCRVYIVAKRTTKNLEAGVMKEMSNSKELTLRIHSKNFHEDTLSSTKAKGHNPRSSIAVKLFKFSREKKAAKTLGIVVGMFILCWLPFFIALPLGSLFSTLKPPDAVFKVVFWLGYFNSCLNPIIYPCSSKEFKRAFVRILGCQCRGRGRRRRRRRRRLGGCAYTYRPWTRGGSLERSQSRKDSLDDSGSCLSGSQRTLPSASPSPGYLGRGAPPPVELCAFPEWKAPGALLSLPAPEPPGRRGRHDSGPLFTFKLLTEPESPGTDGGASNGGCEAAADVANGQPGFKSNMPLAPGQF
Kind of test: Binding affinity against Alpha-1B adrenergic receptor (recombinant human receptor) using [3H]prazosin.

The target of test [5] is T1, Alpha-1D adrenergic receptor. Kind of test: Binding affinity against Alpha-1D adrenergic receptor (recombinant human receptor) using [3H]-prazosin.
For test [6], the target named is T2, Alpha-1A adrenergic receptor. Kind of test: Binding affinity against isolated human prostate using [3H]- prazosin. It counts as tissue-based, Prostate gland.
The species named for a further test is Rattus norvegicus. Kind of test: Antagonistic activity inhibiting phenylephrine induced contractions in isolated rat prostate. Type of test: functional, Prostate gland.

On to `COC(=O)C1=C(C)N=C(C)N(CCCCCN2CCC(c3ccccc3)(c3ccccc3)CC2)C1c1ccc(F)c(F)c1` (configuration not stated), for which the Ki in test [1] is 110 nM; in test [2] it was 0.4 nM; in test [3], 0.97 nM; in test [4] it was 100 nM; in test [5], 180 nM; in test [6], 0.33 nM. Further, the Kb in the test listed under Rattus norvegicus is given as 60 nM.
